In patent US7160888B2, “[1,8]naphthyridin-2-ones and related compounds for the treatment of schizophrenia” (Warner Lambert Company LLC, priority 2003, dated 2007):

Target: D2 receptor (Homo sapiens, UniProt P14416)
Experiment: [3H]Thymidine uptake assay for D2 intrinsic activity
Assay type: cell-based
Conditions: test compound 1 μM, 1 μM Quinpirole = 100% intrinsic activity

Sequence of D2 receptor (P14416 whole entry): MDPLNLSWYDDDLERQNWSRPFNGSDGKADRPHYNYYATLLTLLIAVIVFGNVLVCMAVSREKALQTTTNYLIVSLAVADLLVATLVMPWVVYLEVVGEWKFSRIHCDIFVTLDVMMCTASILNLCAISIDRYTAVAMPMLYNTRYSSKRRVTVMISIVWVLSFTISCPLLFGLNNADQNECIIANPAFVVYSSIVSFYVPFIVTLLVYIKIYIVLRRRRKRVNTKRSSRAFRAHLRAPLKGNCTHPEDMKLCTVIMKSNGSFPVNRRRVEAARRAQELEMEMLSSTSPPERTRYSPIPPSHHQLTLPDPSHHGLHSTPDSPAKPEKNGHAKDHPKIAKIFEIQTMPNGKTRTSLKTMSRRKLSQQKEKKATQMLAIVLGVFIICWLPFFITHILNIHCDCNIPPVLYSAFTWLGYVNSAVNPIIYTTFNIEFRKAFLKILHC

Compound: CC1(C)C(=O)Nc2nc(OCCCCN3CCN(c4cccc(Cl)c4Cl)CC3)ccc2C1O (centres unmarked) [Example D15, 7-{4-[4-(2,3-Dichloro-phenyl)-piperazin-1-yl]-butoxy}-4-hydroxy-3,3-dimethyl-3,4-dihydro-1H-[1,8]naphthyridin-2-one]
- Emax at 1 µM (Table 1): 25%

Compound: CC1(C)CC(=O)Nc2nc(OCCCCN3CCN(c4cccc5ccccc45)CC3)ccc21 [Example D16, 4,4-Dimethyl-7-[4-(4-naphthalen-1-yl-piperazin-1-yl)-butoxy]-3,4-dihydro-1H-[1,8]naphthyridin-2-one]
- Emax at 1 µM (Table 1): 31%

Compound: CC1(C)CC(=O)Nc2nc(OCCCCN3CCN(c4cccc(Cl)c4Cl)CC3)ccc21 [Example D17, 7-{4-[4-(2,3-Dichloro-phenyl)-piperazin-1-yl]-butoxy}-4,4-dimethyl-3,4-dihydro-1H-[1,8]naphthyridin-2-one]
- Emax at 1 µM (Table 1): 29%

Compound: CC1(C)CC(=O)Nc2nc(OCCCCN3CCN(c4cccc5c4CCCC5)CC3)ccc21 [Example D18, 4,4-Dimethyl-7-{4-[4-(5,6,7,8-tetrahydro-naphthalen-1-yl)-piperazin-1-yl]-butoxy}-3,4-dihydro-1H-[1,8]naphthyridin-2-one]
- Emax at 1 µM (Table 1): 37%

Compound: CC1(C)CC(=O)Nc2nc(OCCCCN3CCN(c4cccc5c4CCC5)CC3)ccc21 [Example D19, 7-[4-(4-Indan-4-yl-piperazin-1-yl)-butoxy]-4,4-dimethyl-3,4-dihydro-1H-[1,8]naphthyridin-2-one]
- Emax at 1 µM (Table 1): 39%

Compound: Cc1cccc(N2CCN(CCCCOc3ccc4c(n3)NC(=O)CC4(C)C)CC2)c1Cl [Example D20, 7-{4-[4-(2-Chloro-3-methyl-phenyl)-piperazin-1-yl]-butoxy}-4,4-dimethyl-3,4-dihydro-1H-[1,8]naphthyridin-2-one]
- Emax at 1 µM (Table 1): 44%

Compound: Cc1c(Cl)cccc1N1CCN(CCCCOc2ccc3c(n2)NC(=O)CC3(C)C)CC1 [Example D21, 7-{4-[4-(3-Chloro-2-methyl-phenyl)-piperazin-1-yl]-butoxy}-4,4-dimethyl-3,4-dihydro-1H-[1,8]naphthyridin-2-one]
- Emax at 1 µM (Table 1): 24%

Compound: CC1(C)CC(=O)Nc2nc(OCCCCN3CCN(c4cccc(C5CC5)n4)CC3)ccc21 [Example D22, 7-{4-[4-(6-Cyclopropyl-pyridin-2-yl)-piperazin-1-yl]-butoxy}-4,4-dimethyl-3,4-dihydro-1H-[1,8]naphthyridin-2-one]
- Emax at 1 µM (Table 1): 42%

Compound: CCc1ccccc1N1CCN(CCCCOc2ccc3c(n2)NC(=O)CC3(C)C)CC1 [Example D23, 7-{4-[4-(2-Ethyl-phenyl)-piperazin-1-yl]-butoxy}-4,4-dimethyl-3,4-dihydro-1H-[1,8]naphthyridin-2-one]
- Emax at 1 µM (Table 1): 33%

Compound: CC(C)COc1ccccc1N1CCN(CCCCOc2ccc3c(n2)NC(=O)CC3(C)C)CC1 [Example D24, 7-{4-[4-(2-Isobutoxy-phenyl)-piperazin-1-yl]-butoxy}-4,4-dimethyl-3,4-dihydro-1H-[1,8]naphthyridin-2-one]
- Emax at 1 µM (Table 1): 32%

Compound: CC(C)Oc1ccccc1N1CCN(CCCCOc2ccc3c(n2)NC(=O)CC3(C)C)CC1 [Example D25, 7-{4-[4-(2-Isopropoxy-phenyl)-piperazin-1-yl]-butoxy}-4,4-dimethyl-3,4-dihydro-1H-[1,8]naphthyridin-2-one]
- Emax at 1 µM (Table 1): 31%

Compound: O=c1ncc2ccc(OCCCCN3CCN(c4cccc5c4OCCC5)CC3)nc2[nH]1 [Example E1′, 7-[4-(4-Chroman-8-yl-piperazin-1-yl)-butoxy]-1H-pyrido[2,3-d]pyrimidin-2-one]
- Emax at 1 µM (Table 2): 12%

Compound: O=C1NCc2ccc(OCCCCN3CCN(c4cccc5c4OCCC5)CC3)nc2N1 [Example E2′, 7-[4-(4-Chroman-8-yl-piperazin-1-yl)-butoxy]-3,4-dihydro-1H-pyrido[2,3-d]pyrimidin-2-one]
- Emax at 1 µM (Table 2): 9%

Compound: O=C1CCc2cc(F)c(OCCCCN3CCN(c4cccc(Cl)c4Cl)CC3)nc2N1 [Example E3, 7-{4-[4-(2,3-Dichloro-phenyl)-piperazin-1-yl]-butoxy}-6-fluoro-3,4-dihydro-1H-[1,8]naphthyridin-2-one]
- Emax at 1 µM (Table 1): 31%

Compound: O=C1NCc2ccc(OCCCCN3CCN(c4cccc5c4OCC5)CC3)nc2N1 [Example E3′, 7-{4-[4-(2,3-Dihydro-benzofuran-7-yl)-piperazin-1-yl]-butoxy}-3,4-dihydro-1H-pyrido[2,3-d]pyrimidin-2-one]
- Emax at 1 µM (Table 2): 8%

Compound: O=C1CCc2cc(F)c(OCCCCN3CCN(c4cccc5ccccc45)CC3)nc2N1 [Example E4, 6-Fluoro-7-[4-(4-naphthalen-1-yl-piperazin-1-yl)-butoxy]-3,4-dihydro-1H-[1,8]naphthyridin-2-one]
- Emax at 1 µM (Table 1): 38%

Compound: O=C1NCc2ccc(OCCCCN3CCN(c4cccc5c4OCCCO5)CC3)nc2N1 [Example E4′, 7-{4-[4-(3,4-Dihydro-2H-benzo[b][1,4]dioxepin-6-yl)-piperazin-1-yl]-butoxy}-3,4-dihydro-1H-pyrido[2,3-d]pyrimidin-2-one]
- Emax at 1 µM (Table 2): 26%

Compound: O=C1CCc2cc(F)c(OCCCCN3CCN(c4cccc5c4CCC5)CC3)nc2N1 [Example E5, 6-Fluoro-7-[4-(4-indan-4-yl-piperazin-1-yl)-butoxy]-3,4-dihydro-1H-[1,8]naphthyridin-2-one]
- Emax at 1 µM (Table 1): 21%

Compound: O=C1CCc2cc(Cl)c(OCCCCN3CCN(c4cccc5ccccc45)CC3)nc2N1 [Example E6, 6-Chloro-7-[4-(4-naphthalen-1-yl-piperazin-1-yl)-butoxy]-3,4-dihydro-1H-[1,8]naphthyridin-2-one]
- Emax at 1 µM (Table 1): 32%

Compound: O=C1CCc2cc(Br)c(OCCCCN3CCN(c4cccc(Cl)c4Cl)CC3)nc2N1 [Example E7, 6-Bromo-7-{4-[4-(2,3-dichloro-phenyl)-piperazin-1-yl]-butoxy}-3,4-dihydro-1H-[1,8]naphthyridin-2-one]
- Emax at 1 µM (Table 1): 19%

Compound: O=C1CCc2cc(Br)c(OCCCCN3CCN(c4cccc5ccccc45)CC3)nc2N1 [Example E8, 6-Bromo-7-[4-(4-naphthalen-1-yl-piperazin-1-yl)-butoxy]-3,4-dihydro-1H-[1,8]naphthyridin-2-one]
- Emax at 1 µM (Table 1): 26%

Compound: Cc1cc(OCCCCN2CCN(c3cccc(Cl)c3Cl)CC2)nc2c1CCC(=O)N2 [Example E9, 7-{4-[4-(2,3-Dichloro-phenyl)-piperazin-1-yl]-butoxy}-5-methyl-3,4-dihydro-1H-[1,8]naphthyridin-2-one]
- Emax at 1 µM (Table 1): 34%

Compound: Cc1cc(OCCCCN2CCN(c3cccc4ccccc34)CC2)nc2c1CCC(=O)N2 [Example E10, 5-Methyl-7-[4-(4-naphthalen-1-yl-piperazin-1-yl)-butoxy]-3,4-dihydro-1H-[1,8]naphthyridin-2-one]
- Emax at 1 µM (Table 1): 31%

Compound: Cc1cc(OCCCCN2CCN(c3cccc4c3CCCC4)CC2)nc2c1CCC(=O)N2 [Example E11, 5-Methyl-7-{4-[4-(5,6,7,8-tetrahydro-naphthalen-1-yl)-piperazin-1-yl]-butoxy}-3,4-dihydro-1H-[1,8]naphthyridin-2-one]
- Emax at 1 µM (Table 1): 19%

Compound: Cc1cc(OCCCCN2CCN(c3cccc4c3CCC4)CC2)nc2c1CCC(=O)N2 [Example E12, 7-[4-(4-Indan-4-yl-piperazin-1-yl)-butoxy]-5-methyl-3,4-dihydro-1H-[1,8]naphthyridin-2-one]
- Emax at 1 µM (Table 1): 39%

Compound: O=C1CCc2c(C(F)(F)F)cc(OCCCCN3CCN(c4cccc5c4CCC5)CC3)nc2N1 [Example E13, 7-[4-(4-Indan-4-yl-piperazin-1-yl)-butoxy]-5-trifluoromethyl-3,4-dihydro-1H-[1,8]naphthyridin-2-one]
- Emax at 1 µM (Table 1): 11%
